Data from patent publication US11021521B2, “Pore-modified gram-negative bacteria and uses thereof” (priority 2015, dated 2021).
Values after ≈ are worked out from the molar mass of the structure shown. Values joined by “and” are separate entries in the source; they are usually repeats but may differ in a detail not shown here. Equal values may be shown once. Read-outs that look alike come from different tables or passages of the source.

Experiments:
[1] = system: P. aeruginosa PAO1-LAC (wild type, empty cassette); test: microbe, parasite or virus in culture; format: cell-based; conditions: at least three independent measurements
[2] = system: P. aeruginosa PAO1-LAC-EcPore (hyperporinated); test: microbe, parasite or virus in culture; format: cell-based; conditions: for MIC: PAO1-LAC-EcPore, at least three independent measurements
[3] = system: P. aeruginosa PaΔ3-LAC (efflux-deficient); test: microbe, parasite or virus in culture; format: cell-based; conditions: at least three independent measurements
[4] = system: P. aeruginosa PaΔ3-LAC-EcPore (efflux-deficient, hyperporinated); test: microbe, parasite or virus in culture; format: cell-based
[5] = system: B. thailandensis Bt-RHA (wild type, empty cassette); test: microbe, parasite or virus in culture; format: cell-based
[6] = system: B. thailandensis Bt-RHA-BtPore (hyperporinated); test: microbe, parasite or virus in culture; format: cell-based
[7] = system: B. thailandensis BtΔ2-RHA (efflux-deficient); test: microbe, parasite or virus in culture; format: cell-based
[8] = system: B. cepacia Bc-RHA-BtPore (hyperporinated); test: microbe, parasite or virus in culture; format: cell-based; conditions: for MIC: Bc-RHA-BtPore
[9] = system: A. baumannii Ab-ARA (wild type, empty cassette); test: microbe, parasite or virus in culture; format: cell-based; conditions: at least three independent measurements
[10] = system: A. baumannii Ab-ARA-EcPore (hyperporinated); test: microbe, parasite or virus in culture; format: cell-based; conditions: for MIC: Ab-ARA-EcPore, at least three independent measurements
[11] = system: A. baumannii AbΔ3-ARA (efflux-deficient); test: microbe, parasite or virus in culture; format: cell-based; conditions: for MIC: AbΔ3-ARA, at least three independent measurements
[12] = system: A. baumannii AbΔ3-ARA-EcPore (efflux-deficient, hyperporinated); test: microbe, parasite or virus in culture; format: cell-based; conditions: for MIC: AbΔ3-ARA-EcPore; for Fold change of MIC by efflux inactivation plus hyperporination: AbΔ3-ARA-EcPore vs Ab-ARA
[13] = system: B. thailandensis cells (Bt-RHA and derivatives)
[14] = system: A. baumannii cells (Ab-ARA and derivatives); test: Fluorescent probe uptake assay, A. baumannii strains; conditions: AbΔ3-ARA vs Ab-ARA, fluorescence
[15] = system: P. aeruginosa cells (PAO1-LAC and derivatives); test: Fluorescent probe uptake assay, P. aeruginosa strains
[16] = system: B. thailandensis BtΔ2-RHA-BtPore (efflux-deficient, hyperporinated); test: microbe, parasite or virus in culture; format: cell-based
[17] = system: B. cepacia Bc-RHA (wild type, empty cassette); test: microbe, parasite or virus in culture; format: cell-based
[18] = PaΔ3-LAC-EcPore, at least three independent measurements
[19] = at least three independent measurements
[20] = Pseudomonas aeruginosa, read-out: MIC
[21] = Pseudomonas aeruginosa, PaΔ3-LAC-EcPore, at least three independent measurements, read-out: MIC
[22] = Burkholderia cepacia, read-out: MIC
[23] = Acinetobacter baumannii, read-out: MIC
[24] = Acinetobacter baumannii, at least three independent measurements, read-out: MIC

Molecule | MIC [1] | MIC [2] | MIC [3] | MIC [4, 18] | MIC [5] | MIC [6] | MIC [7] | MIC [9] | MIC [10] | MIC [11] | MIC [12, 19] | MIC [16] | MIC [17] | MIC [8] | further results
CCOc1ccc(-c2nc3ccc(-c4nc5ccc(N6CCN(C)CC6)cc5[nH]4)cc3[nH]2)cc1 [HT, Hoechst 33342] | >64 µg/mL | 64 µg/mL (≈ 141 µM) | 16 µg/mL (≈ 35.4 µM) | 2 µg/mL | >64 µM | >64 µM | 1 µM | 25 µg/mL (≈ 55.2 µM) | 3.125 µg/mL (≈ 6.91 µM) | 0.78 µg/mL (≈ 1.72 µM) | 0.025 µg/mL | – | – | – | Fold decrease of MIC (potentiation) by hyperporination ([2]; Pae: PAO1-LAC-EcPore vs parent): 4 to 8 fold; MIC ([4]; PΔ3-LAC-EcPore): 2.0 µM; Fold decrease of MIC (potentiation) by hyperporination ([8]; Bc: Bc-RHA-BtPore vs parent): > 4 fold; Fold decrease of MIC (potentiation) by hyperporination ([10]; Abau: Ab-ARA-EcPore vs parent): 4 to 8 fold and 8 fold; Fold reduction of MIC by inactivation of efflux ([11]; Abau: AbΔ3-ARA vs Ab-ARA): 32 fold; MIC [12]: 0.025 to 0.05 µM; Fold change of MIC by efflux inactivation plus hyperporination [12]: 1000 fold; Change of intracellular accumulation of probe by inactivation of efflux [13]: up to 2 fold; Change of intracellular accumulation of probe by inactivation of efflux [14]: up to 2 fold; Change of intracellular accumulation of probe by inactivation of efflux ([15]; PΔ3-LAC vs PAO1-LAC, fluorescence): lower than those in the parent PAO1-LAC
c1ccc(Nc2cccc3ccccc23)cc1 [NPN, N-phenyl-1-naphthylamine] | – | – | – | – | – | – | – | – | – | – | – | – | – | – | Change of intracellular accumulation of probe by inactivation of efflux [13]: higher levels of NPN accumulation than in hyperporinated cells; Change of intracellular accumulation of probe by inactivation of efflux [14]: higher levels of NPN accumulation than in hyperporinated cells; Probe levels in efflux-deficient hyperporinated cells vs parent ([15]; PΔ3-LAC-EcPore vs PAO1-LAC): only slightly higher than in PAO1-LAC cells
Oc1cc(Cl)ccc1Oc1ccc(Cl)cc1Cl [Triclosan] | – | – | – | – | – | – | – | – | – | – | – | – | – | – | MIC [1, 20]: 1020 µg/mL (≈ 3540 µM); MIC [2, 20]: 1020 µg/mL (≈ 3540 µM); MIC [3, 20]: 32 µg/mL (≈ 111 µM); MIC [4, 21]: 8 µg/mL; MIC ([5]; Burkholderia thailandensis): 120 µg/mL; MIC ([6]; Burkholderia thailandensis): 30 µg/mL; MIC ([7]; Burkholderia thailandensis): 0.12 µg/mL; MIC ([16]; Burkholderia thailandensis): 0.06 µg/mL (≈ 0.207 µM); MIC [17, 22]: > 120 µg/mL; MIC [8, 22]: 60 µg/mL (≈ 207 µM); MIC [9, 23]: 0.125 µg/mL (≈ 0.432 µM); MIC [10, 23]: 0.063 µg/mL (≈ 0.218 µM); MIC [11, 23]: 0.002 µg/mL (≈ 0.00691 µM); MIC [12, 24]: 0.001 µg/mL
CN[C@H](CC(C)C)C(=O)N[C@H]1C(=O)N[C@@H](CC(N)=O)C(=O)N[C@H]2C(=O)N[C@H]3C(=O)N[C@H](C(=O)N[C@H](C(=O)O)c4cc(O)cc(O)c4-c4cc3ccc4O)[C@H](O)c3ccc(c(Cl)c3)Oc3cc2cc(c3O[C@@H]2O[C@H](CO)[C@@H](O)[C@H](O)[C@H]2O[C@H]2C[C@](C)(N)[C@H](O)[C@H](C)O2)Oc2ccc(cc2Cl)[C@H]1O [Vancomycin] | – | – | – | – | – | 256 to 512 µg/mL | – | – | – | – | – | – | – | – | MIC [1, 20]: 1020 µg/mL (≈ 707 µM); MIC [2, 20]: 128 µg/mL (≈ 88.3 µM); MIC [3, 20]: 1020 µg/mL (≈ 707 µM); MIC [4, 21]: 64 µg/mL; MIC ([5]; Burkholderia thailandensis): > 1020 µg/mL; MIC ([7]; Burkholderia thailandensis): > 1020 µg/mL; MIC ([16]; Burkholderia thailandensis): 4 to 8 µg/mL (≈ 2.76 to 5.52 µM); MIC [17, 22]: > 1020 µg/mL; MIC [8, 22]: 8 µg/mL (≈ 5.52 µM); MIC [9, 23]: 1020 µg/mL (≈ 707 µM); MIC [10, 23]: 128 µg/mL (≈ 88.3 µM); MIC [11, 23]: 1020 µg/mL (≈ 707 µM); MIC [12, 24]: 128 µg/mL
Cc1c(N)nc([C@H](CC(N)=O)NC[C@H](N)C(N)=O)nc1C(=O)N[C@H](C(=O)N[C@H](C)[C@@H](O)[C@H](C)C(=O)N[C@H](C(=O)NCCC1=N[C@@H](c2nc(C(=O)NCCCCN=C(N)N)cs2)CS1)[C@@H](C)O)[C@@H](O[C@@H]1O[C@@H](CO)[C@@H](O)[C@H](O)[C@@H]1O[C@H]1O[C@H](CO)[C@@H](O)[C@H](OC(N)=O)[C@@H]1O)c1cnc[nH]1 [Zeocin] | 512 µg/mL (≈ 359 µM) | 32 to 64 µg/mL | 16 µg/mL (≈ 11.2 µM) | 2 µg/mL | 512 µg/mL | 128 µg/mL | 2 µg/mL | 8 µg/mL (≈ 5.6 µM) | 0.5 µg/mL (≈ 0.35 µM) | 1 µg/mL (≈ 0.701 µM) | 0.125 µg/mL | 0.12 µg/mL (≈ 0.0841 µM) | >1024 µg/mL | 128 µg/mL (≈ 89.7 µM) | Fold change of MIC by efflux inactivation plus hyperporination ([4]; PaeΔ3-LAC-Pore vs parent): 256 fold; Fold change of MIC by efflux inactivation plus hyperporination [16]: 4096 fold; Fold change of MIC by efflux inactivation plus hyperporination [12]: 64 fold
Polymyxin B | 1.5 µg/mL | 1.5 µg/mL | 1.5 µg/mL | 1.5 µg/mL | >1024 µg/mL | >1024 µg/mL | >1024 µg/mL | 0.25 µg/mL | 0.25 µg/mL | 0.125 µg/mL | 0.125 µg/mL | 128 µg/mL | >1024 µg/mL | 512 µg/mL | –
Tobramycin [Tobramycin + Mg^2+] | 2 µg/mL | 1 µg/mL | 0.5 µg/mL | 0.5 µg/mL | 64 µg/mL | 64 µg/mL | 1 µg/mL | 4 µg/mL | 2 µg/mL | 4 µg/mL | 2 µg/mL | 1 µg/mL | 32 to 64 µg/mL | 4 µg/mL | –
